Values joined by “and” are separate entries in the source; they are usually repeats but may differ in a detail not shown here. Equal values may be shown once.
Test: xn = mol fraction of the nth substance listed
Settings: 293.15 K, 92.3 kPa, Liquid; for viscosity: Concentric cylinders viscometry; for speed of sound: Frequency=3 MHz, Single path-length method; for mass density: Vibrating tube method

CCO [ethanol] + O
Settings | mass density | speed of sound [m/s] | viscosity [mPa·s]
x1 = 0.0024 | 997.039 kg/m3 | 1487.7 | –
x1 = 0.0201 | 989.54 kg/m3 | – | 1.247
x1 = 0.0202 | 989.382 kg/m3 | 1522.5 | –
x1 = 0.0295 | 985.977 kg/m3 | 1540 | –
x1 = 0.0366 | 983.574 kg/m3 | 1553 | –
x1 = 0.0408 | 982.27 kg/m3 | – | 1.529
x1 = 0.0497 | 979.54 kg/m3 | – | 1.648
x1 = 0.0513 | 978.913 kg/m3 | 1578 | –
x1 = 0.06 | 976.51 kg/m3 and 976.452 kg/m3 | 1590.8 | 1.821
x1 = 0.0707 | 973.538 kg/m3 | 1604.2 | –
x1 = 0.0796 | 971.24 kg/m3 | – | 2.045
x1 = 0.0801 | 971.049 kg/m3 | 1613.8 | –
x1 = 0.0904 | 968.313 kg/m3 | 1621.5 | –
x1 = 0.0997 | 965.87 kg/m3 | 1625.7 | –
x1 = 0.1004 | 963.75 kg/m3 | – | 2.311
x1 = 0.1294 | 957.918 kg/m3 | 1623.8 | –
x1 = 0.1497 | 952.184 kg/m3 | 1611.9 | –
x1 = 0.1499 | 951.92 kg/m3 | – | 2.72
x1 = 0.1984 | 935.19 kg/m3 | – | 2.857
x1 = 0.2008 | 937.088 kg/m3 | 1566.6 | –
x1 = 0.2499 | 922.7 kg/m3 | – | 2.864
x1 = 0.2503 | 922.612 kg/m3 | 1520.2 | –
x1 = 0.2998 | 908.897 kg/m3 | 1478.2 | –
x1 = 0.3016 | 908.77 kg/m3 | – | 2.793
x1 = 0.3499 | 896.37 kg/m3 | – | 2.681
x1 = 0.3507 | 895.841 kg/m3 | 1440.4 | –
x1 = 0.399 | 884.54 kg/m3 | – | 2.55
x1 = 0.3992 | 884.433 kg/m3 | 1408.9 | –
x1 = 0.4495 | 873.57 kg/m3 | – | 2.405
x1 = 0.4514 | 873.258 kg/m3 | 1379 | –
x1 = 0.4989 | 864.28 kg/m3 | – | 2.291
x1 = 0.5002 | 863.248 kg/m3 | 1353.5 | –
x1 = 0.5494 | 854.117 kg/m3 | 1330.4 | –
x1 = 0.5495 | 854.95 kg/m3 | – | 2.177
x1 = 0.6018 | 845.002 kg/m3 | 1307.8 | –
x1 = 0.6067 | 844.7 kg/m3 | – | 1.997
x1 = 0.6503 | 837.27 kg/m3 and 837.196 kg/m3 | 1288.5 | 1.895
x1 = 0.6956 | 830.42 kg/m3 | – | 1.788
x1 = 0.7006 | 829.434 kg/m3 | 1269.1 | –
x1 = 0.7355 | 824.262 kg/m3 | 1256 | –
x1 = 0.75 | 822.4 kg/m3 | – | 1.68
x1 = 0.7843 | 817.86 kg/m3 | – | 1.612
x1 = 0.7965 | 815.831 kg/m3 | 1234.1 | –
x1 = 0.8433 | 809.567 kg/m3 | 1217.4 | –
x1 = 0.8475 | 809.97 kg/m3 | – | 1.518
x1 = 0.8864 | 804.22 kg/m3 | – | 1.42
x1 = 0.892 | 803.132 kg/m3 | 1199.7 | –
x1 = 0.9093 | 800.938 kg/m3 | 1193.5 | –
x1 = 0.9207 | 799.51 kg/m3 | 1189.5 | –
x1 = 0.929 | 798.49 kg/m3 | – | 1.341
x1 = 0.9307 | 798.225 kg/m3 | 1185.8 | –
x1 = 0.9398 | 797.133 kg/m3 | 1182.6 | –
x1 = 0.9483 | 796.043 kg/m3 | 1179.4 | –
x1 = 0.9603 | 794.596 kg/m3 | 1175.3 | –
x1 = 0.9702 | 793.374 kg/m3 | 1171.7 | –
x1 = 0.9801 | 792.038 kg/m3 | 1168.5 | –
x1 = 0.9895 | 791.076 kg/m3 | 1165 | –
x1 = 1 | 789.547 kg/m3 | 1160.7 | 1.202

From the NIST ThermoML archive (doi:10.1016/j.jct.2018.02.022)
